From US12391686B2, “Compounds and uses thereof” (Foghorn Therapeutics Inc., priority 2019, dated 2025) come the findings set out here.

The assay concerns the target T1, Nanoluciferase-BRD9 fusion protein (3×FLAG-NLuc-BRD9) in SYO-1 cells (Homo sapiens, UniProt Q9H8M2).
T1 construct: expressed in transfected cells; host or cells: SYO-1
T1 sequence (Q9H8M2 1-597): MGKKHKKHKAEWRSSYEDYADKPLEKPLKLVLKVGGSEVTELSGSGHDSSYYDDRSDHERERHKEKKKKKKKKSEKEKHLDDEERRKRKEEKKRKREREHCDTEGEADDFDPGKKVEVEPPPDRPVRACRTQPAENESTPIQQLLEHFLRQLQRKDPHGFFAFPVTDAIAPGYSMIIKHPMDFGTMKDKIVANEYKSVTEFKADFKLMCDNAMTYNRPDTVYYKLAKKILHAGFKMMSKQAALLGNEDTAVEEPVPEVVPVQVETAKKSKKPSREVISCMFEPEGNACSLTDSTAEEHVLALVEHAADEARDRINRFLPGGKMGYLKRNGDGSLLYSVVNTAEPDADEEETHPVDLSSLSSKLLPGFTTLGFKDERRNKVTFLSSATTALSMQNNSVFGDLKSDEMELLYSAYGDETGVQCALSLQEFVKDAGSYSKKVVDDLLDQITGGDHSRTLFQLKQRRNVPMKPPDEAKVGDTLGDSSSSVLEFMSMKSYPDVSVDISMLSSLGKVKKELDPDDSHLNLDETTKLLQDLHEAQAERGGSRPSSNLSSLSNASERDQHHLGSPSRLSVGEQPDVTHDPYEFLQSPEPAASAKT
As to the kind of experiment: SYO1 BRD9 NanoLuc Degradation Assay. It is filed as cell-based. The following applies: SYO-1 cells expressing 3×FLAG-NLuc-BRD9, 6 hours incubation, 1 μM top dose, read-out: SYO1 BRD9-NanoLuc degradation IC50. The method in brief:
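NanoLuc signal, read by Nano-Glo luminescence after 6 h compound exposure, gives % inhibition against DMSO-treated cells (high control) and cells given 1 μM of a standard BRD9 degrader (low control). Test compounds ran as 10-point 3-fold series, top 1 μM final, in duplicate on SYO-1 cells stably expressing 3×FLAG-NLuc-BRD9.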

Where two headings read alike, the source gives them in different places. Where only a bound is given, the exact number is not on record here.

Consider `COc1cc(-c2nn(C)c(=O)c3cnc(N4CCC4)cc23)cc(OC)c1CN1CCC(CN2CCC3(CC2)CC(Oc2ccc4c(c2)C(=O)N(C2CCC(=O)NC2=O)C4)C3)CC1` (stereo not drawn) [Compound D283], for which, for the setting “Table 6C”, the DC50 was in the range of 100 to 1000 nM.
In the case of `COc1cc(-c2cn(C)c(=O)c3cnc(N(C)C)cc23)cc(OC)c1CN1CCN(C2(COc3cccc4c3C(=O)N(C3CCC(=O)NC3=O)C4=O)COC2)CC1` (stereo not drawn) [Compound D100], the DC50 (Table 6B) is less than 10 nM.
The same measure, in the same setting: then `COc1cc(-c2cn(C)c(=O)c3cnc(N(C)C)cc23)cc(OC)c1CN1CCC2C(C1)CN2c1ccc2c(c1)C(=O)N(C1CCC(=O)NC1=O)C2=O` (stereo not drawn) [Compound D93], with less than 10 nM; and `COc1cc(-c2cn(C)c(=O)c3cnc(N(C)C)cc23)cnc1CN1CCC(CCN2CCN(c3ccc4c(c3)C(=O)N(C3CCC(=O)NC3=O)C4=O)CC2)CC1` (stereo not drawn) [Compound D48], with less than 10 nM; and `COc1cc(-c2cn(C)c(=O)c3cnc(N(C)C)cc23)c2c(c1)N(CCCCCN1CCC3(CC1)CC(Oc1ccc4c(c1)C(=O)N(C1CCC(=O)NC1=O)C4=O)C3)CC2` (stereo not drawn) [Compound D46], with less than 10 nM.
On the same count and under the same terms, the result for `COc1cc(-c2cn(C)c(=O)c3cnc(N(C)C)cc23)cc(OC)c1CN1CC(CN2CCC3(CC2)CC(Oc2ccc4c(c2)C(=O)N(C2CCC(=O)NC2=O)C4=O)C3)C1` (stereo not drawn) [Compound D67] reads less than 10 nM; that for `COc1cc(-c2cn(C)c(=O)c3cnc(N(C)C)cc23)cc(OC)c1CN1CC(N2CCN(C3CCC(=O)NC3=O)C(=O)C2)C1` (stereo not drawn) [Compound D94], 10 to 100 nM.
With `COc1cc(-c2cn(C)c(=O)c3cnc(OC(F)F)cc23)cc(OC)c1CN1CC(CN2CCC3(CC2)CN(c2ccc4c(c2)C(=O)N(C2CCC(=O)NC2=O)C4)C3)C1` (stereo not drawn) [Compound D175], under “Table 6B”, the DC50 is no less than 1000 nM.
Turning to `COCC1CN(CCC2CCN(c3ccc4c(c3)C(=O)N(C3CCC(=O)NC3=O)C4=O)CC2)CCN1Cc1c(OC)cc(-c2cn(C)c(=O)c3cnc(N4CCC4)cc23)cc1OC` (stereo not drawn) [Compound D215], the DC50 (Table 6C) was less than 10 nM.
Consider `COc1cc(-c2cn(C)c(=O)c3cnc(N(C)C)cc23)cc(OC)c1CN1CCC(C(=O)N2CCC3(CC2)CC(Oc2ccc4c(c2)C(=O)N(C2CCC(=O)NC2=O)C4=O)C3)C(OC)C1` (stereo not drawn) [Compound D111], for which the DC50 (Table 6B) is less than 10 nM.
Turning to `COc1cc(-c2cn(C)c(=O)c3cnc(C4CC4)cc23)cc(OC)c1CN1CCN(CCC2CCN(c3ccc4c(c3)C(=O)N(C3CCC(=O)NC3=O)C4=O)CC2)CC1` (stereo not drawn) [Compound D299], the DC50 (Table 6C) is less than 10 nM.
On to `COc1cc(-c2cn(C)c(=O)c3cnc(N(C)C)cc23)cc(OC)c1CN1CC(CN2CCC3(CC2)CN(c2ccc4c(c2)CN(C2CCC(=O)NC2=O)C4=O)C3)C1` (stereo not drawn) [Compound D143], for which, under “Table 6B”, the DC50 was less than 10 nM.
For the compound `COc1cc(N(C)C2CCN(c3ccc4c(c3)C(=O)N(C3CCC(=O)NC3=O)C4)CC2)c(OC)cc1-c1cn(C)c(=O)c2cnc(N(C)C)cc12` (stereo not drawn) [Compound D279], the DC50 (Table 6C) is less than 10 nM.
The same measure, in the same setting: the result for `COc1cc(-c2cn(C)c(=O)c3cnc(N4CC(F)(F)C4)cc23)cc(OC)c1CN1CCC(CN2CCC3(CC2)CN(c2ccc4c(c2)C(=O)N(C2CCC(=O)N(C)C2=O)C4)C3)CC1` (stereo not drawn) [Compound D261] reads no less than 1000 nM.
Take `COc1cc(-c2cn(C)c(=O)c3cnc(N(C)C)cc23)c2c(c1)N(CCCCCCCCOc1cccc3c1C(=O)N(C1CCC(=O)NC1=O)C3=O)CC2` (stereo not drawn) [Compound D47]: the DC50 (Table 6B) was in the range of 10 to 100 nM.
Consider `COc1cc(-c2cn(C)c(=O)c3cnc(N4CC(C)(OC)C4)cc23)cc(OC)c1CN1CCC(CN2CCC3(CC2)CN(c2ccc4c(c2)C(=O)N(C2CCC(=O)NC2=O)C4)C3)CC1` (stereo not drawn) [Compound D209], for which the DC50 (Table 6C) is less than 10 nM.
With `COc1cc(-c2cn(C)c(=O)c3cnc(N(C)C)cc23)cc(OC)c1CN1CCC(CN2Cc3cc4c(cc3C2)C(=O)N(C2CCC(=O)NC2=O)C4=O)CC1` (stereo not drawn) [Compound D61], the DC50 (Table 6B) was less than 10 nM.
Same read-out and setting: the result for `COc1cc(-c2cn(C)c(=O)c3cnc(N4CCC4)cc23)cc(OC)c1CN1CCC2(CC1)CN(c1ccc3c(c1)C(=O)N(C1CCC(=O)NC1=O)C3=O)C2` (stereo not drawn) [Compound D126] reads less than 10 nM.
